SMILES strings stand for the structures. pIC50: −log10 of the molar value.

Our source for the IC50 values is patent publication US20240228459A1 (Boundless Bio, Inc., priority 2022, published 2024).

The target of one assay is PLK1 (Homo sapiens, UniProt P53350). The assay is described as follows: PLK1 activity (known assay). The assay is classed as biochemical. As to the method: (§1) The Wee1 pCDK1 and PLK1 activities were determined using known assays.
The target in another assay is Wee1 (Homo sapiens, UniProt P30291). Description: Wee1 pCDK1 activity (known assay). Format: cell-based. As to the method:
as §1

Sequence of Wee1 (P30291 whole entry, species assumed): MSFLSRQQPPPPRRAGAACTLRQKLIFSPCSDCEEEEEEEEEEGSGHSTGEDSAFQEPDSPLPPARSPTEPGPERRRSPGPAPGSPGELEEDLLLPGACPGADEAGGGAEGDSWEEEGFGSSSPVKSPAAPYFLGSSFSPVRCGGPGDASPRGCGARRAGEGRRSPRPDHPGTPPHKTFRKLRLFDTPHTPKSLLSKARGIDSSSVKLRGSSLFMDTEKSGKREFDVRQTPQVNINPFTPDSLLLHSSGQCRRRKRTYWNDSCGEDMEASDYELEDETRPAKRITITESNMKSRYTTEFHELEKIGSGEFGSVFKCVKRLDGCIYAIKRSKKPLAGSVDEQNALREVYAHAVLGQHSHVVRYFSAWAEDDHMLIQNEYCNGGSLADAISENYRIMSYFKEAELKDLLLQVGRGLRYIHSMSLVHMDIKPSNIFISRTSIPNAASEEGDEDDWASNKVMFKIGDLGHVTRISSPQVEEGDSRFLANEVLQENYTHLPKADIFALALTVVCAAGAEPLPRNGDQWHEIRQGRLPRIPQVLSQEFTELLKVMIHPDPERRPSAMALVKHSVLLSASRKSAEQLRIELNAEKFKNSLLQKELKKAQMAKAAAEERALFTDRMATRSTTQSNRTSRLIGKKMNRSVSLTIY
Sequence of PLK1 (P53350 whole entry, species assumed): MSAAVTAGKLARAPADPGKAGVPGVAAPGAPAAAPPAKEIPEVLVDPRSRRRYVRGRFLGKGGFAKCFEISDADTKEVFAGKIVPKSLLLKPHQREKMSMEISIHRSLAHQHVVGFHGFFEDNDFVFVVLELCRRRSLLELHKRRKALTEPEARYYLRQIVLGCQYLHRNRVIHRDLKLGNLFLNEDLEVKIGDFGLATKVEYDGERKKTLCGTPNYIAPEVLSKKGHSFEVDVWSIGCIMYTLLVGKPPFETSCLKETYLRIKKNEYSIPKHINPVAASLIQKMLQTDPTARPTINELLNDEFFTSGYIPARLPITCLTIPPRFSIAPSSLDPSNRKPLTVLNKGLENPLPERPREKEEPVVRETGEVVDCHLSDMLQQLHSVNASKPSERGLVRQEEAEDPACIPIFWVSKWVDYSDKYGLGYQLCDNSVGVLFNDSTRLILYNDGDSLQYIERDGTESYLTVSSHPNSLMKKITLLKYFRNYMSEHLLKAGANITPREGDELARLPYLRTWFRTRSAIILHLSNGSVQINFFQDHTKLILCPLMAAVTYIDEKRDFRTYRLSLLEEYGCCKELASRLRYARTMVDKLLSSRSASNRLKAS

As for `COCc1cc(Nc2ncc(C#N)c(Nc3cccc(N4CCCC4=O)n3)n2)ccc1C1CCN(C)CC1` [Example 63, 2-[3-(methoxymethyl)-4-(1-methyl-4-piperidyl)anilino]-4-[[6-(2-oxopyrrolidin-1-yl)-2-pyridyl]amino]pyrimidine-5-carbonitrile], the pIC50 against PLK1 is less than 6.00; against Wee1, 6.00 to 6.30.

`CCC1(O)CCc2ccc(Nc3nc(Nc4ccc(N5CCNC6(CC6)C5)cc4)ncc3C#N)nc21` (centres unmarked) [Example 31, 2-[4-(4,7-diazaspiro[2.5]octan-7-yl)anilino]-4-[(7-ethyl-7-hydroxy-5,6-dihydrocyclopenta[b]pyridin-2-yl)amino]pyrimidine-5-carbonitrile]: the pIC50 on PLK1 is 6.60 to 7.00; at Wee1, less than 6.00.

Take `COCC1CN(C)CCN1c1ccc(Nc2ncc(C#N)c(Nc3cccc(N4CCCC4=O)n3)n2)cc1` (centres unmarked) [Example 69, 2-[4-[2-(methoxymethyl)-4-methyl-piperazin-1-yl]anilino]-4-[[6-(2-oxopyrrolidin-1-yl)-2-pyridyl]amino]pyrimidine-5-carbonitrile]: the results for the negative-log IC50 (pIC50) at PLK1 and on Wee1 were less than 6.00 and 6.30 to 6.60, respectively.

Consider `CCC1(O)CCc2ccc(Nc3nc(Nc4ccc5c(c4)CN(C)CC5)ncc3C#N)nc21` (centres unmarked) [Example 29], for which the pIC50 is 6.60 to 7.00 against PLK1 and 6.30 to 6.60 on Wee1.

Consider `CCC1(O)CCc2ccc(Nc3nc(Nc4ccc(COC)c(N5CCN(C)CC5)c4)ncc3C#N)nc21` (centres unmarked) [Example 50, 4-[(7-ethyl-7-hydroxy-5,6-dihydrocyclopenta[b]pyridin-2-yl)amino]-2-[4-(methoxymethyl)-3-(4-methylpiperazin-1-yl)anilino]pyrimidine-5-carbonitrile], for which the pIC50 against PLK1 is 6.60 to 7.00; at Wee1, 6.00 to 6.30.

On to `CCC1(O)CCc2ccc(Nc3nc(Nc4cc(C)c5c(c4)CN(C)CC5)ncc3C#N)nc21` (centres unmarked) [Example 49, 2-[(2,5-dimethyl-3,4-dihydro-1H-isoquinolin-7-yl)amino]-4-[(7-ethyl-7-hydroxy-5,6-dihydrocyclopenta[b]pyridin-2-yl)amino]pyrimidine-5-carbonitrile], for which the pIC50 at PLK1 and on Wee1 was not below 7.00 in each case.

Take `CCC1(O)CCc2ccc(Nc3nc(Nc4ccc(N5C6CCC5CN(C)C6)cc4)ncc3C#N)nc21` (single isomer, unassigned) [Example 38]: the pIC50 against PLK1 and at Wee1 was 6.30 to 6.60 each time.

On to `CCC1(O)CCc2ccc(Nc3nc(Nc4ccc(N5CCN(C)CC5)nc4)ncc3C#N)nc21` (centres unmarked) [Example 14, 4-[(7-ethyl-7-hydroxy-5,6-dihydrocyclopenta[b]pyridin-2-yl)amino]-2-[[6-(4-methylpiperazin-1-yl)-3-pyridyl]amino]pyrimidine-5-carbonitrile], for which the pIC50 at PLK1 is not below 7.00; at Wee1, less than 6.00.

Consider `CCC1(O)CCc2ccc(Nc3nc(Nc4ccc5c(c4)CN(C)CC54CC4)ncc3C#N)nc21` (centres unmarked) [Example 56, 4-[(7-ethyl-7-hydroxy-5,6-dihydrocyclopenta[b]pyridin-2-yl)amino]-2-[(2-methylspiro[1,3-dihydroisoquinoline-4,1′-cyclopropane]-7-yl)amino]pyrimidine-5-carbonitrile], for which the pIC50 at PLK1 and against Wee1 was 6.60 to 7.00 throughout.

Turning to `CCC1(O)CCc2ccc(Nc3nc(Nc4ccc(N5CCN(C)CC5)cc4)ncc3C#N)nc21` (centres unmarked) [Example 15, 4-[(7-ethyl-7-hydroxy-5,6-dihydrocyclopenta[b]pyridin-2-yl)amino]-2-[4-(4-methylpiperazin-1-yl)anilino]pyrimidine-5-carbonitrile], the pIC50 at PLK1 was not below 7.00; at Wee1, 6.30 to 6.60.

As for `CCC1(O)CCc2ccc(Nc3nc(Nc4ccc(C5CCN(C)CC5)c(C)c4)ncc3C#N)nc21` (single isomer, unassigned) [Example 21], the pIC50 on PLK1 and against Wee1 was not below 7.00 each time.

For the compound `CCC1(O)CCc2ccc(Nc3nc(Nc4ccc5c(c4)CCN(C)C5(C)C)ncc3C#N)nc21` (single isomer, unassigned) [Example 27], the negative-log IC50 (pIC50) against PLK1 is less than 6.00; on Wee1, not below 7.00.

For the compound `CCC1(O)CCCc2ccc(Nc3nc(Nc4ccc(N5CCN(C)CC5)cc4)ncc3C#N)nc21` (centres unmarked) [Example 1, 4-[(8-ethyl-8-hydroxy-6,7-dihydro-5H-quinolin-2-yl)amino]-2-[4-(4-methylpiperazin-1-yl)anilino]pyrimidine-5-carbonitrile], the results for the pIC50 at PLK1 and at Wee1 were not below 7.00 and 6.60 to 7.00, respectively.

Turning to `Cc1cc(Nc2ncc(C#N)c(Nc3cccc(N4CCCC4=O)n3)n2)cc2c1CN(C)CC2` [Example 73, 2-[(2,8-dimethyl-3,4-dihydro-1H-isoquinolin-6-yl)amino]-4-[[6-(2-oxopyrrolidin-1-yl)-2-pyridyl]amino]pyrimidine-5-carbonitrile], the pIC50 was less than 6.00 on PLK1 and not below 7.00 at Wee1.

For the compound `CCC1(O)CCc2ccc(Nc3nc(Nc4ccc(N5CCN(C6CC6)CC5)cc4)ncc3C#N)nc21` (centres unmarked) [Example 23, 2-[4-(4-cyclopropylpiperazin-1-yl)anilino]-4-[(7-ethyl-7-hydroxy-5,6-dihydrocyclopenta[b]pyridin-2-yl)amino]pyrimidine-5-carbonitrile], the pIC50 at PLK1 was not below 7.00; at Wee1, 6.00 to 6.30.

In the case of `CCC1(O)CCc2ccc(Nc3nc(Nc4ccc(C5CCN(C)CC5)c(OC)c4)ncc3C#N)nc21` (centres unmarked) [Example 45, 4-[(7-ethyl-7-hydroxy-5,6-dihydrocyclopenta[b]pyridin-2-yl)amino]-2-[3-methoxy-4-(1-methyl-4-piperidyl)anilino]pyrimidine-5-carbonitrile], the pIC50 at PLK1 and on Wee1 was not below 7.00 in each case.

Take `CCC1(O)CCc2ccc(Nc3nc(Nc4ccc5c(c4)CCN(C)C5)ncc3C#N)nc21` (centres unmarked) [Example 46, 4-[(7-ethyl-7-hydroxy-5,6-dihydrocyclopenta[b]pyridin-2-yl)amino]-2-[(2-methyl-3,4-dihydro-1H-isoquinolin-6-yl)amino]pyrimidine-5-carbonitrile]: the pIC50 against PLK1 was 6.30 to 6.60; at Wee1 it was 6.60 to 7.00.

Consider `CCC1(O)CCc2ccc(Nc3nc(Nc4ccc(N5CC6CN(C)CC6C5)cc4)ncc3C#N)nc21` (centres unmarked) [Example 34, 4-[(7-ethyl-7-hydroxy-5,6-dihydrocyclopenta[b]pyridin-2-yl)amino]-2-[4-(2-methyl-1,3,3a,4,6,6a-hexahydropyrrolo[3,4-c]pyrrol-5-yl)anilino]pyrimidine-5-carbonitrile], for which the pIC50 was not below 7.00 on PLK1 and 6.60 to 7.00 against Wee1.

With `CCC1(O)CCc2ccc(Nc3nc(Nc4ccc(N5CCN(C)C(C)C5)cc4)ncc3C#N)nc21` (centres unmarked) [Example 52, 2-[4-(3,4-dimethylpiperazin-1-yl)anilino]-4-[(7-ethyl-7-hydroxy-5,6-dihydrocyclopenta[b]pyridin-2-yl)amino]pyrimidine-5-carbonitrile], the values for the negative logarithm of the IC50 (pIC50) on PLK1 and against Wee1 were not below 7.00 and 6.30 to 6.60, respectively.

With `CCC1(O)CCc2ccc(Nc3nc(Nc4ccc(C5CCNCC5)c(C)c4)ncc3C#N)nc21` (centres unmarked) [Example 18, 4-[(7-ethyl-7-hydroxy-5,6-dihydrocyclopenta[b]pyridin-2-yl)amino]-2-[3-methyl-4-(4-piperidyl)anilino]pyrimidine-5-carbonitrile], the pIC50 was not below 7.00 on PLK1 and 6.30 to 6.60 against Wee1.

On to `CN1CCc2cc(Nc3ncc(C#N)c(Nc4cccc(N5CCOC5=O)n4)n3)ccc2C1` [Example 12, 2-[(2-methyl-3,4-dihydro-1H-isoquinolin-6-yl)amino]-4-[[6-(2-oxooxazolidin-3-yl)-2-pyridyl]amino]pyrimidine-5-carbonitrile], for which the values for the pIC50 against PLK1 and against Wee1 were less than 6.00 and not below 7.00, respectively.

For the compound `CCC1(O)CCc2ccc(Nc3nc(Nc4ccc(N5C[C@@H](C)N(C)[C@@H](C)C5)cc4)ncc3C#N)nc21` (mixture of isomers) [Example 53, 4-[(7-ethyl-7-hydroxy-5,6-dihydrocyclopenta[b]pyridin-2-yl)amino]-2-[4-[rac-(3R,5S)-3,4,5-trimethylpiperazin-1-yl]anilino]pyrimidine-5-carbonitrile], the pIC50 on PLK1 is not below 7.00; against Wee1 it was 6.60 to 7.00.

Turning to `CCC1(O)CCc2ccc(Nc3nc(Nc4ccc(N5CCNCC5)c(C)c4)ncc3C#N)nc21` (centres unmarked) [Example 17, 4-[(7-ethyl-7-hydroxy-5,6-dihydrocyclopenta[b]pyridin-2-yl)amino]-2-(3-methyl-4-piperazin-1-yl-anilino)pyrimidine-5-carbonitrile], the pIC50 on PLK1 and on Wee1 was not below 7.00 throughout.

Turning to `CN1CCN(c2ccc(Nc3ncc(C#N)c(Nc4cccc(N5CCCC5)n4)n3)cc2)CC1` [Example 7, 2-[4-(4-methylpiperazin-1-yl)anilino]-4-[(6-pyrrolidin-1-yl-2-pyridyl)amino]pyrimidine-5-carbonitrile], the pIC50 at PLK1 is not below 7.00; on Wee1 it was 6.60 to 7.00.

Consider `CCC1(O)CCc2ccc(Nc3nc(Nc4ccc(N5C[C@@H](C)N[C@@H](C)C5)cc4)ncc3C#N)nc21` (mixture of isomers) [Example 32, 4-[(7-ethyl-7-hydroxy-5,6-dihydrocyclopenta[b]pyridin-2-yl)amino]-2-[4-[rac-(3R,5S)-3,5-dimethylpiperazin-1-yl]anilino]pyrimidine-5-carbonitrile], for which the pIC50 was not below 7.00 against PLK1 and 6.60 to 7.00 against Wee1.

In the case of `CN1CCC(O)(c2ccc(Nc3ncc(C#N)c(Nc4cccc(N5CCCC5=O)n4)n3)cc2)CC1` [Example 78, 2-[4-(4-hydroxy-1-methyl-4-piperidyl)anilino]-4-[[6-(2-oxopyrrolidin-1-yl)-2-pyridyl]amino]pyrimidine-5-carbonitrile], the pIC50 against PLK1 and at Wee1 was less than 6.00 in each case.

As for `CN1CCN(c2ccc(Nc3ncc(C#N)c(Nc4cccc(N5CCCC5=O)n4)n3)cc2)CC1=O` [Example 71, 2-[4-(4-methyl-3-oxo-piperazin-1-yl)anilino]-4-[[6-(2-oxopyrrolidin-1-yl)-2-pyridyl]amino]pyrimidine-5-carbonitrile], the pIC50 on PLK1 was 6.30 to 6.60; at Wee1, 6.00 to 6.30.

Turning to `CCC1(O)CCc2ccc(Nc3nc(Nc4ccc(N5CCN(C)CC5C)cc4)ncc3C#N)nc21` (centres unmarked) [Example 51, 2-[4-(2,4-dimethylpiperazin-1-yl)anilino]-4-[(7-ethyl-7-hydroxy-5,6-dihydrocyclopenta[b]pyridin-2-yl)amino]pyrimidine-5-carbonitrile], the pIC50 against PLK1 was 6.30 to 6.60; on Wee1, 6.60 to 7.00.

A word on the pIC50: it is the negative decadic logarithm of the IC50, by convention in mol/L. Low readings indicate a high IC50, high ones a low IC50.
